Experimental data taken from PubChem BioAssay AID624265 (Broad Institute, 2012).
Calls of active or inactive are those of the source.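 Rule for the calls: active = at a dose no more than twice the top valid tested dose, the fitted curve drops below -35% activity change; inactive = the rest, rising-direction activity included.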

Assay: NIH3T3 cell viability loss, ATP content – CellTiter-Glo luminescence, cherry-pick, set 2, cytotoxicity control for HSP40 inhibitor project, dose response (AID 624265);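 note: cells exposed to compound for 48 hours before the ATP read; 0% = median neutral control signal and -100% = no luminescence left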
Conditions: NIH3T3 viability, CellTiter-Glo ATP luminescence

| SMILES | activity change, negative = toxicity (at 50 µM (top of the series)) | activity change, negative = toxicity (at 16 µM (top of the series)) |
| --- | --- | --- |
| Cc1ccoc1C(=O)Nc1cccc(Oc2ccccc2)c1 | 9.85% (inactive) |  |
| Clc1ccc(C(Cn2ccnc2)OCc2c(Cl)cccc2Cl)c(Cl)c1 (stereo unspecified) | 0.224% (inactive) |  |
| CC(=O)NC(c1cccc([N+](=O)[O-])c1)c1ccc2cccnc2c1O (stereo unspecified) | -27.2% (inactive) |  |
| COc1ccc(C(=O)On2c(-c3ccc(Br)cc3)nc3ccccc3c2=O)cc1 | 8% (inactive) |  |
| O=C(c1ccccc1)N1C(=O)C(c2ccccc2)Oc2ccccc21 (stereo unspecified) | 5.11% (inactive) |  |
| O=C(Nc1ccc(Br)c(C(F)(F)F)c1)c1ccccc1 | -9.98% (inactive) |  |
| O=c1c2ccccc2nc(-c2cccc(Cl)c2)n1O | 4.83% (inactive) |  |
| CN(C)c1nc(SCc2ccc(Cl)cc2)nc2c1CCCC2 | 9.05% (inactive) |  |
| O=C(Nc1nnc(SCc2ccc(F)cc2)s1)c1ccccn1 | 5.25% (inactive) |  |
| Cc1cccc(Nc2nc(-c3ccc(O)cc3O)cs2)n1 | 0.061% (inactive) |  |
| O=S(=O)(c1ccc(Cl)cc1)N1CCC2(CC1)OCCN2S(=O)(=O)c1cccs1 | -0.748% (inactive) |  |
| CC(C)C(=O)NC(c1ccco1)c1ccc2cccnc2c1O (stereo unspecified) |  | -30% (inactive) |
| CCCS(=O)(=O)c1c(S(=O)(=O)CCC)c2c(C)cccn2c1C(=O)N/N=C/c1cc(O)cc(O)c1 | -15.8% (inactive) |  |
| COc1cc([N+](=O)[O-])cc(/C=N/NC(=O)c2cncc(Br)c2)c1O | -13.4% (inactive) |  |
| O=C1N(c2ccc(Cl)cc2)C(c2cccnc2)N2CCCN12 (stereo unspecified) | 17.3% (inactive) |  |
| CCCOc1ccc(S(=O)(=O)n2cc(F)c(=O)[nH]c2=O)cc1 | 10.7% (inactive) |  |
| COc1cccc(CC(=O)Nc2ccc3nc(C)sc3c2)c1 | 14.6% (inactive) |  |
| O=C(O)CSc1nc(-c2ccc(Cl)cc2)nc2c1oc1ccccc12 | -3.22% (inactive) |  |
| Cc1cc(C(=O)COC(=O)Cc2n[nH]c(=O)c3ccccc23)c(C)n1-c1cccc(C(F)(F)F)c1 | 24.5% (inactive) |  |
| O=C(c1ccc(-c2ccccc2)cc1)C1CCCN(C(=O)c2cncs2)C1 (stereo unspecified) | -8.68% (inactive) |  |
| C[C@@]12CCC3[C@@](CCC4[C@@]3(C)CCC[C@@]4(C)C(=O)NCc3ccccc3)(CC1=O)C2 (stereo partly specified) | 2.89% (inactive) |  |
| O=C(Nc1nnc(-c2ccccc2)o1)c1ccc(Cl)cc1 | 29.9% (inactive) |  |
| Nc1nc(-c2ccc(Oc3ccccc3)cc2)cs1 | 6.84% (inactive) |  |

| SMILES | activity change, negative = toxicity (at 50 µM (top of the series)) | activity change, negative = toxicity (at 16 µM (top of the series)) |
| --- | --- | --- |
| COc1ccc(Sc2nc(-c3ccccn3)ncc2OC)cc1 | 5.95% (inactive) |  |
| Nc1nc2sc3c(c2c(=O)s1)CCCC3 | 13.7% (inactive) |  |
| O=C(N/N=C/c1cc(Cl)cc([N+](=O)[O-])c1O)c1ccccc1NS(=O)(=O)c1cccs1 | 2.81% (inactive) |  |
| Cc1ccc(-c2c3c(nc4sc(C(N)=O)c(N)c24)CCCC3)o1 | 14.4% (inactive) |  |
| [O-][n+]1cccc2c(Br)cc(Br)c(O)c21 | -12.1% (inactive) |  |
| O=P(Nc1cccnc1)(Oc1ccccc1Cl)Oc1ccccc1Cl | -1.87% (inactive) |  |
| Cc1ccc(NC2(c3nnnn3-c3c(C)cccc3C)CCCCC2)cc1 | 0.981% (inactive) |  |
| O=C(Nc1nnc(-c2cccs2)o1)c1cccc(Oc2ccccc2)c1 | -7.72% (inactive) |  |
| Clc1ccc(-c2n[nH]c3c2CCC3)cc1Cl | 1.25% (inactive) |  |
| Cc1ccc(NC(=S)c2nc3ccccc3[nH]2)c(C)c1 | -2.47% (inactive) |  |
| O=C(c1ccc(Cl)cc1)N1CCN(c2ccc(F)cc2)CC1 | 5.81% (inactive) |  |
| O=C(CCCSc1ccccc1)Nc1nc(-c2ccccn2)cs1 | -1.21% (inactive) |  |
| Oc1ccccc1-c1cc(-c2ccc3c(c2)OCCO3)n[nH]1 | -2.25% (inactive) |  |
| CCOC(=O)c1cnc(-n2nc(C)cc2C)nc1NC1CCCC1 | 37.9% (inactive) |  |
| Cc1c(C2(O)CCCCC2)[nH]c2ccc(C(F)(F)F)cc12 | -6.56% (inactive) |  |
| Cc1nc2ccc(C(=O)NCc3ccc4c(c3)OCO4)cc2s1 | 1.22% (inactive) |  |
| Cc1ccc(C(=O)C(SC(C)(C)C)n2cncn2)cc1 (stereo unspecified) | 10.4% (inactive) |  |
| Cc1ccc(O)c(C2=NNC(c3ccc(Cl)cc3)C2)c1 (stereo unspecified) | 0.122% (inactive) |  |
| CC(C)=CCc1c(O)ccc(C(=O)Cc2ccccc2)c1O | -2.45% (inactive) |  |
| Cc1cccc(NC(=S)NC(C)CCc2ccccc2)c1 (stereo unspecified) | 12.9% (inactive) |  |
| Nc1nc(-c2ccccc2)c(-c2ccc([N+](=O)[O-])cc2)s1 | 15.2% (inactive) |  |
| COC(=O)C1=NN(C(=O)c2cccc(Br)c2)C(O)(c2ccc(Cl)cc2)C1 (stereo unspecified) | -0.434% (inactive) |  |
| C=C(C)COc1ccc(-c2[nH]ncc2-c2ccc(Br)cc2)c(O)c1 | 1.03% (inactive) |  |

| SMILES | activity change, negative = toxicity (at 50 µM (top of the series)) | activity change, negative = toxicity (at 16 µM (top of the series)) |
| --- | --- | --- |
| Cc1nc2ccc(C(C(F)(F)F)(C(F)(F)F)C(F)(F)F)cc2[nH]1 | 3.14% (inactive) |  |
| COc1cc(NS(=O)(=O)c2ccc(C)cc2)c2ncccc2c1 | 5.44% (inactive) |  |
| CN(C)c1ccc(C=c2c3cc(O)ccc3n3c2cc(-c2ccccc2)[n+]3C)cc1 | 3.47% (inactive) |  |
| Cc1cccc(N2CCN(C(=O)C3COc4ccccc4O3)CC2)c1C (stereo unspecified) | -5.05% (inactive) |  |
| O=C1c2ccccc2-n2c1nc1ccccc1c2=O | -25.8% (inactive) |  |
| CCCCNc1c(-c2ccc(-c3ccc(OC)cc3)c(OC)c2)nc2ccccn12 | 2.06% (inactive) |  |
| CCOc1ccc(N/N=C(/C#N)C(N)=O)cc1 | 9.15% (inactive) |  |
| CCc1ccc(S(=O)(=O)N(C(=O)c2ccncc2)c2ccc(OC(=O)c3ccncc3)cc2)cc1 | 12.1% (inactive) |  |
| O/N=C/c1ccccc1OCc1ccc(Cl)cc1 | 18.4% (inactive) |  |
| Fc1ccc(CCNC(=S)Nc2ccc(F)c(Cl)c2)cc1 | -8.4% (inactive) |  |
| c1ccc(CSc2ccc(-c3ccccn3)nn2)nc1 | -13% (inactive) |  |
| CCCCC(=O)NC(c1ccco1)c1cc(Cl)c2cccnc2c1O (stereo unspecified) | -22.9% (inactive) |  |
| CCC(C)Sc1cccc(-c2nc3ccccn3c2NCc2ccccc2)c1 (stereo unspecified) | -15.9% (inactive) |  |
| COC(=O)c1cccc2c1-c1ccccc1/C2=N/O | 28.2% (inactive) |  |
| O=C(c1ccccc1)c1coc2c1C(=O)c1ccccc1C2=O | -10.3% (inactive) |  |
| O=[N+]([O-])c1ccc2c(OCc3nnc(-c4ccccc4Br)o3)ncnc2c1 | -6.18% (inactive) |  |
| O/N=C(\c1ccc(Cl)cc1Cl)c1ncc(C(F)(F)F)cc1Cl | -0.787% (inactive) |  |
| O/N=C/c1cc(Br)ccc1OCc1ccccc1F | 7.25% (inactive) |  |
| Oc1c(I)cc(Cl)c2cccnc12 | -13.1% (inactive) |  |
| CCC(C)c1ccc(NC(=S)NCCn2cc(Br)cn2)cc1 (stereo unspecified) | 16.1% (inactive) |  |
| CC(=O)Nc1cccc(NC(=O)CSc2ccc(-c3ccccn3)nn2)c1 | -9.54% (inactive) |  |
| COc1cnc(-c2ccccn2)nc1Oc1ccc(C(C)(C)C)cc1 | 23.5% (inactive) |  |
| c1ccc(C(=NNc2nc3ccccc3s2)c2ccccn2)cc1 | 11.9% (inactive) |  |

| SMILES | activity change, negative = toxicity (at 50 µM (top of the series)) | activity change, negative = toxicity (at 16 µM (top of the series)) |
| --- | --- | --- |
| CC1CCc2c(C(=O)Nc3ccccn3)csc2C1 (stereo unspecified) | -3.05% (inactive) |  |
| O=c1cc(CSc2ccc(Cl)cc2)nc(-c2ccccn2)[nH]1 | 20.7% (inactive) |  |
| CC(C)(C)C(O)C(Cc1ccccc1Cl)n1cncn1 (stereo unspecified) | -1.54% (inactive) |  |
| O=Cc1cc(N=Nc2ccccc2Cl)ccc1O | -3.57% (inactive) |  |
| c1ccc(-c2ccc(SCc3cccnc3)nn2)nc1 | -5.74% (inactive) |  |
| Cn1ccc(=Nc2ccc(NC(=O)c3ccc(N=c4ccn(C)c5ccc([N+](=O)[O-])cc45)cc3)cc2)cc1 | 1.51% (inactive) |  |
| Oc1c(Br)cc(-c2ccccc2)cc1Br | 10.3% (inactive) |  |
| COc1ccc(/C=N/Nc2cc(C)nc(-n3nc(C)cc3C)n2)cc1 | -9.51% (inactive) |  |
| CC(C)(C)n1nc(Cc2cccc3ccccc23)c2c(N)ncnc21 | 9.94% (inactive) |  |
| CCn1c(CNc2ccc(Cl)cc2)nnc1SCc1ccccc1 | -7.39% (inactive) |  |
| CCCCCCn1c(=O)c(C(=O)Nc2ncccc2C)c(O)c2ccccc21 | 6.84% (inactive) |  |
| Cc1cc(/C=C2\SC(=S)N(C)C2=O)c(C)n1-c1ccc(O)cc1 | 6.11% (inactive) |  |
| COc1cccc(/C=N/NC(=O)c2nc(-c3ccccc3)cc(-c3ccccc3)n2)c1O | -8.68% (inactive) |  |
| Cc1ccc(C)c(/C=C/C(=O)c2ccccc(=O)c2O)c1 | -4.58% (inactive) |  |
| CC1(C)CC(=O)C(N=Nc2ccc3ncsc3c2)=C(O)C1 | 3.01% (inactive) |  |
| CCCSC(=S)c1c(C)[nH]n(-c2ccccc2)c1=O | -14.1% (inactive) |  |
| O=C(COc1ccccc1F)Nc1nc(-c2ccccn2)cs1 | -8.96% (inactive) |  |
| CC(C)CSc1n[nH]c(=S)s1 | 9% (inactive) |  |
| COc1ccc(N(C(=O)c2ccncc2)S(=O)(=O)c2ccccc2)cc1 | -6.26% (inactive) |  |
| CC1(C(=O)OCC(=O)Nc2ccc3ccccc3c2)CC1(Cl)Cl (stereo unspecified) | 0.196% (inactive) |  |
| Cc1ccc(-n2nnnc2SCC(=O)N2CCc3ccccc3C2)c(C)c1 | 3.85% (inactive) |  |
| Clc1ccccc1C(c1ccccc1)(c1ccccc1)n1ccnc1 | 10.3% (inactive) |  |
